We go through 2 compounds from patent US20040229942A1, “Analeptic and antidepressant combinations” (Cephalon Inc, priority 2003, published 2004).

Structures are written as SMILES.

One assay relates to non-human primates. Conditions: non-human primates (Hernant et al, 1991); cited from earlier work.
In another assay the test system is cats. Conditions: cats (Lin et al., 1992); cited from earlier work.
The subject of assay [1] is patients previously diagnosed with MDD (single episode or recurrent). As to the kind of experiment: Clinical study: modafinil started together with an SSRI (fluoxetine or paroxetine) in MDD patients, depressive symptom assessment (HAMD-21, HAMD-31, response, remission). The following applies: human, in vivo. As to the method: Eligible patients were previously diagnosed with MDD (single episode or recurrent), […] had significant fatigue (Fatigue Severity Scale [FSS] score of greater than or equal to 4), and had not taken antidepressant therapy for greater than or equal to 4 weeks. Patients were evaluated at screening, baseline (shown in Table 1), and weeks 1, 2, 3, 4, 5, and 6.
Patients were then started on a combination of an SSRI and modafinil.
Modafinil was initiated at 100 mg/day for 3 days and then titrated to 200 mg/day, depending on response and tolerability. SSRI therapy was either fluoxetine or paroxetine administered at 20 mg/day for 6 weeks.
Depressive symptom changes were analyzed using HAMD-31, each of which were videotaped and rated independently, and HAMD-21 total score evaluations. HAMD-21 total score analyses were also performed to evaluate response and remission rates. Changes in fatigue were assessed using the FSS. A fatigue response was defined as an FSS score of less than 4 at any post-baseline visit. […] Subjective sleepiness was assessed using the Epworth Sleepiness Scale (ESS). […] Symptoms associated with depression, including fatigue, mood, motivation, and concentration, were evaluated using patient-assessed Visual Analogue Scales (VAS).
Continuous variables were analyzed using a paired t-test for normally distributed data or Wilcoxon signed rank test for non-normal data. […]

The next assay has as its system rats. The following applies: rats (Touret et al., 1995; Edgar and Seidel, 1997); cited from earlier work.
A further assay relates to canines. The following applies: canines (Shelton et al., 1995); cited from earlier work.
Assay [2] relates to major depressive disorder. Conditions: at 6 weeks; cited from earlier work.

Take `NC(=O)C[S+]([O-])C(c1ccccc1)c1ccccc1` (stereo not drawn) [Modafinil, 2-(benzhydrylsulfinyl) acetamide]: the wakefulness entry with non-human primates, in the assay on cats, in the assay on rats and with canines was “promotes wakefulness” each time. In assay [1], the “overall conclusion on adjuvant effect in patients with depression and significant fatigue” value was “rapid-acting and effective adjuvant medication”.
On to `CNCCC(Oc1ccc(C(F)(F)F)cc1)c1ccccc1` (stereo not drawn) [fluoxetine], for which, in assay [2], the “response to antidepressant therapy” value was “about 50%”.
